PubChem BioAssay (NCI)
Several values for one entry are separate records, joined by “and”; a condition that tells them apart may be missing. Identical values can stand only once.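 Growth conditions: 96-well plates. Treatment: test compound, 48 hours, 5 concentrations. Analysis: linear interpolation between bracketing concentrations; unreached endpoints set to highest concentration. GI50 is the concentration that inhibits growth by half. TGI: total growth inhibition.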 *1 amine or outer side, *2 acyl side, *3 side chain or, on linkers, in order; H or OH if unused. Where a SMILES comes first, the peptide text is derived from it. [ ]: non-standard residue; d: D form. The star is where a group is joined. ξ: configuration not given here. NMeY = CN[C@@H](Cc1ccc(O)cc1)C(=O)O; Ethylenediamine = C(CN[*:2])N[*:1]; ξNMeL = CNC(CC(C)C)C(=O)O; Cbz = O=C(OCc1ccccc1)*; Lac = C[C@H](O)C(=O)O; ξA = CC(N)C(=O)O

Key:
Test in all cases: growth of human tumour cells (NCI), 48 h
NCI-H23 lung = system: NCI-H23 lung
NCI/ADR-RES ovarian = system: NCI/ADR-RES ovarian
T-47D breast = system: T-47D breast
NCI-H460 lung = system: NCI-H460 lung
DU-145 prostate = system: DU-145 prostate
CCRF-CEM leukemia = system: CCRF-CEM leukemia
PC-3 prostate = system: PC-3 prostate
HCC-2998 colon = system: HCC-2998 colon
SF-295 CNS = system: SF-295 CNS
BT-549 breast = system: BT-549 breast
LOX IMVI melanoma = system: LOX IMVI melanoma
A549 NSCLC = system: A549 NSCLC
CAKI-1 renal = system: CAKI-1 renal
SNB-75 CNS = system: SNB-75 CNS
UACC-62 melanoma = system: UACC-62 melanoma
SW-620 colon = system: SW-620 colon
U251 CNS = system: U251 CNS
NCI-H226 lung = system: NCI-H226 lung

Compound	TGI (NCI-H23 lung)	TGI (NCI/ADR-RES ovarian)	TGI (T-47D breast)	TGI (NCI-H460 lung)	TGI (DU-145 prostate)	TGI (CCRF-CEM leukemia)	TGI (PC-3 prostate)	TGI (HCC-2998 colon)	TGI (SF-295 CNS)	TGI (BT-549 breast)	TGI (LOX IMVI melanoma)	TGI (A549 NSCLC)	TGI (CAKI-1 renal)	TGI (SNB-75 CNS)	TGI (UACC-62 melanoma)	TGI (SW-620 colon)	TGI (U251 CNS)	TGI (NCI-H226 lung)	GI50 (CCRF-CEM leukemia)	GI50 (HCC-2998 colon)
CN(C)C1(N(C)C)Oc2c(c(=O)n(C)c(=O)n2C)C(c2ccc(C(F)(F)F)cc2)C1(F)F (centres undefined)	> 100 µM	> 100 µM	> 100 µM	> 100 µM	> 100 µM	> 100 µM	> 100 µM	> 100 µM	> 100 µM	> 100 µM	> 100 µM	> 100 µM	> 100 µM	> 100 µM	> 100 µM	> 100 µM	> 100 µM	> 100 µM		
NC(=O)CN1CC(C2=C(O)CN(CC(N)=O)C2=O)=CC1=O	> 100 µM	> 100 µM	> 100 µM	> 100 µM	> 100 µM	> 100 µM	> 100 µM	> 100 µM	> 100 µM	> 100 µM	> 100 µM	> 100 µM	> 100 µM	> 100 µM	> 100 µM	> 100 µM	> 100 µM	> 100 µM		
c1ccc2c(c1)nc1n2CSCC1	> 100 µM	> 100 µM	> 100 µM	> 100 µM	> 100 µM	> 100 µM	> 100 µM	> 100 µM	> 100 µM	> 100 µM	> 100 µM	> 100 µM	> 100 µM	> 100 µM	> 100 µM	> 100 µM	> 100 µM	> 100 µM		
C=C1C(=O)O[C@H]2C1C[C@@H](O)/C(C)=C/CC[C@@]1(C)O[C@H]21 (some centres undefined)	31.9 µM	> 87.9 µM	50 µM	> 68.5 µM	> 56 µM	12.6 µM	> 49.3 µM	> 52.6 µM	> 100 µM	> 44.5 µM	26.6 µM	> 91 µM	12.5 µM	34.7 µM	> 54.2 µM	17.9 µM	> 53.2 µM	> 96.4 µM		
COc1cc2cc(C(=O)N3CC(CCl)c4ccc([N+](C)(C)Cc5ccc([N+](=O)[O-])cc5)cc43)[nH]c2c(OC)c1OC (centres undefined)	3.52 µM	4.17 µM	66.2 µM	4 µM	10.8 µM	7.01 µM	16.3 µM	2.95 µM	15.3 µM	35.6 µM		> 100 µM	5.64 µM	11.1 µM	4.69 µM	6.18 µM	7.36 µM	15.4 µM		
Cc1cccc(NC(=O)O/N=C(\Cl)C(C)C)c1	29.1 µM	38.4 µM	15.6 µM	33.2 µM	33 µM	3.9 µM	30.9 µM	33.8 µM	32.1 µM	12.2 µM	3.67 µM	40.9 µM	3.17 µM	33.1 µM	29.6 µM	3.6 µM	43.2 µM	33.5 µM		
CNCCCNC(=S)Cn1cc(C)c(=O)[nH]c1=O	> 81.8 µM	> 100 µM	> 100 µM	> 67.3 µM	> 80.6 µM	> 50 µM	> 100 µM	> 69 µM	> 54.3 µM	> 100 µM	> 100 µM	> 51.3 µM	39.4 µM	> 100 µM	> 63.5 µM	> 100 µM	> 100 µM	> 100 µM		
Cc1cc(S(=O)(=O)Nc2nnc3c4ccccc4cnn23)c(S)cc1Cl	> 100 µM	> 100 µM	> 100 µM	> 85.1 µM	> 100 µM	> 100 µM	> 100 µM	> 100 µM	> 100 µM	> 92.3 µM	> 100 µM	> 100 µM	> 100 µM	> 100 µM	> 100 µM	> 100 µM	> 84.2 µM	> 69.3 µM		
CCC(=O)NI1OC(=O)c2ccccc21	> 100 µM	> 100 µM	> 100 µM	> 100 µM	> 100 µM	> 100 µM	> 100 µM	> 100 µM	> 100 µM	> 100 µM	> 100 µM	> 100 µM	55.2 µM	> 100 µM	> 100 µM	> 100 µM	> 100 µM	> 100 µM		
CN(CCNC(=O)c1c[nH]c2c1ccc1ccccc12)CCNC(=O)c1c[nH]c2c1ccc1ccccc12	11.3 µM	13.1 µM	2.7 µM	4.13 µM	5.06 µM	3.86 µM	6.68 µM	2.87 µM	4.79 µM	26.9 µM	3.09 µM	5.83 µM	10.1 µM	3.38 µM	3.46 µM	3.08 µM	4.03 µM	40.5 µM		
CC1=NN(c2nc(N)nc(CSc3cc(Cl)c(C)cc3S(N)(=O)=O)n2)C(C)(C)C1	> 10 µM	> 10 µM	> 10 µM	> 10 µM	> 10 µM	> 10 µM	> 10 µM	> 10 µM	> 10 µM	> 10 µM	> 10 µM	> 10 µM	> 10 µM	> 10 µM	> 10 µM	> 10 µM	> 10 µM	> 10 µM		
O=C1C[C@H](COCc2ccccc2)NC(=O)C[C@H](COCc2ccccc2)NC(=O)C[C@H](COCc2ccccc2)N1	> 100 µM	> 100 µM	> 100 µM	> 100 µM	> 100 µM	> 100 µM	> 100 µM	> 100 µM	89.2 µM	> 100 µM	> 100 µM	> 100 µM	> 100 µM	8.27 µM	> 100 µM	> 100 µM	> 100 µM	> 100 µM		
Cc1c(O)c(OC2OC(CO)C(O)C(O)C2O)cc2c1C=C[C@@H]1[C@@]2(C)C(=O)C[C@]2(C)[C@@H]([C@@](C)(O)C(O)/C=C/C(C)(C)O)[C@H](O)C[C@@]12C (some centres undefined)	> 100 µM	> 100 µM	> 100 µM	> 100 µM	> 100 µM	> 100 µM	> 100 µM	> 100 µM	> 100 µM	> 100 µM	> 100 µM	> 100 µM	> 100 µM	> 100 µM	> 100 µM	> 100 µM	> 100 µM	> 100 µM		
COc1ccc(/C=C2\C[C@H]3[C@@H]4CC=C5C[C@@H](OC(C)=O)CC[C@]5(C)[C@H]4CC[C@]3(C)\C2=N\O)cc1OC	> 100 µM	> 100 µM	> 100 µM	> 100 µM	> 100 µM	> 100 µM	> 100 µM	> 100 µM	> 100 µM	> 100 µM	> 100 µM	> 100 µM	> 100 µM	> 100 µM	> 100 µM	> 100 µM		56.5 µM		
COc1ccc(C[C@@H](C(=O)NCCNC(=O)C(CC(C)C)N(C)C(=O)[C@@H]2CCCN2C(=O)[C@H](C)O)N(C)C(=O)[C@@H]2CCCN2C(=O)[C@H](CC(C)C)NC(=O)C(C)NC(=O)OCc2ccccc2)cc1 (some centres undefined) (Cbz-[ξA]LP[NMeY](Me)-{Ethylenediamine-ξNMeL-Pro-Lac})	> 100 µM	> 100 µM	> 100 µM	> 100 µM	> 100 µM	> 100 µM	> 100 µM	> 100 µM	> 100 µM	> 100 µM	> 100 µM	> 100 µM	> 100 µM	> 100 µM	> 100 µM	> 100 µM	> 100 µM	> 100 µM		
O=C1NC(N2CCCC(CO)C2)=N/C1=C\c1ccccc1 (centres undefined)	> 100 µM	> 100 µM	> 100 µM		> 100 µM	> 100 µM	> 100 µM	> 100 µM	> 100 µM	> 100 µM	> 100 µM	> 100 µM	> 100 µM	> 100 µM	> 100 µM	> 100 µM	> 100 µM	> 100 µM		
CCOC(=O)c1nc2ccccc2nc1NCc1ccc(OC)c(OC)c1	> 100 µM	> 100 µM	> 100 µM	> 100 µM	> 100 µM	> 100 µM	> 100 µM	> 100 µM	> 100 µM	> 100 µM	> 100 µM	> 100 µM	> 100 µM	> 100 µM	> 100 µM	> 100 µM	> 100 µM	> 100 µM		
O=[N+]([O-])c1ccc(-n2nc3ccc4c(no[n+]4[O-])c3[n+]2[O-])c([N+](=O)[O-])c1	5.43 µM	11 µM	6.63 µM	40.6 µM	12.6 µM	3.68 µM	20.7 µM	8.77 µM	11.9 µM	9.49 µM	4.33 µM	31.4 µM	6.06 µM	23.5 µM	7.72 µM	5.4 µM	7.6 µM	23.3 µM		
CC(=O)N1c2ccccc2C2=NN(C)C(=N)SC21 (centres undefined)	> 100 µM	> 100 µM	> 100 µM	> 100 µM	> 100 µM	> 100 µM	> 100 µM	> 100 µM	> 100 µM	> 100 µM	> 100 µM	> 100 µM		> 100 µM		> 100 µM	> 100 µM	> 100 µM		
Cc1c[nH]c(C(=O)O)c1-c1cccn1-c1ccc(Cl)cc1[N+](=O)[O-]	> 100 µM	> 100 µM	> 100 µM	> 100 µM	> 100 µM	> 100 µM	> 100 µM	> 100 µM	> 100 µM	> 100 µM	> 100 µM	> 100 µM	> 100 µM	> 100 µM	> 100 µM	> 100 µM	> 100 µM	> 100 µM		
Cc1ccc(/C=C2/N=C(N/N=C\C(O)C(O)C(O)CO)NC2=O)cc1 (centres undefined)		> 100 µM	> 100 µM	> 100 µM	> 100 µM	> 100 µM	> 100 µM	> 100 µM	> 100 µM	> 100 µM	> 100 µM	> 100 µM	> 100 µM	> 100 µM		> 100 µM	> 100 µM	> 100 µM	51.5 µM	> 100 µM and 30.9 µM
O=C(O)CCO/N=C1/C(c2c(O)[nH]c3ccccc23)=Nc2ccccc21	66.5 µM	> 100 µM	72.6 µM	> 100 µM	75.1 µM	40.3 µM	> 100 µM	35.7 µM	> 100 µM	> 100 µM	44.8 µM	> 100 µM	63.8 µM	53.5 µM	46.9 µM	> 100 µM	> 100 µM			
N#Cc1c(C#N)c(-c2ccccc2)n(Cc2ccccc2)c1N	> 100 µM	> 100 µM	> 100 µM		> 100 µM	> 100 µM	> 100 µM	> 100 µM	> 100 µM	> 100 µM	> 100 µM	> 100 µM	> 100 µM	64.7 µM	> 100 µM	> 100 µM	> 100 µM	> 100 µM		
CNCCN[C@@H]1c2cc3c(cc2[C@@H](c2cc(OC)c(O)c(OC)c2)[C@H]2C(=O)OC[C@@H]21)OCO3	1.54 µM	> 100 µM	2.6 µM		1.57 µM	0.117 µM	> 41 µM	3.79 µM	1.07 µM	0.814 µM	1.35 µM		6.86 µM	1.12 µM	0.831 µM	> 100 µM	2.13 µM	0.686 µM		
Cn1nc2ccc([N+](=O)[O-])cc2[n+]1[O-]	> 100 µM	> 100 µM	> 100 µM	> 100 µM	> 100 µM	> 100 µM	> 100 µM	> 100 µM	> 100 µM	> 100 µM		> 100 µM	> 100 µM	> 100 µM	> 100 µM		> 100 µM	> 100 µM		
